Measured values taken from publication PMC3469657, “De novo GTP Biosynthesis Is Critical for Virulence of the Fungal Pathogen Cryptococcus neoformans” (PLoS Pathogens, 2012).

Experiments:
[1] = target: T1, CgImd1 (IMP dehydrogenase, CgIMPDH, VGIV) (Cryptococcus bacillisporus, UniProt E3P6S3); assay: NADH production at […] nm, tight-binding inhibition fits; format: biochemical
T1 construct: gene IMD1; recombinant CgImd1 expressed in E. coli

[2] = target: T2, CnImd1 (IMP dehydrogenase, CnIMPDH, VNI) (Cryptococcus neoformans, UniProt J9VET5); assay: crystal structure with IMP and MPA; steady-state kinetics (tight-binding uncompetitive vs NAD+); format: biochemical
T2 construct: gene CNAG_00441; recombinant, 544 residues; 395 residues modelled per monomer
T2 sequence (J9VET5 entry or part of it): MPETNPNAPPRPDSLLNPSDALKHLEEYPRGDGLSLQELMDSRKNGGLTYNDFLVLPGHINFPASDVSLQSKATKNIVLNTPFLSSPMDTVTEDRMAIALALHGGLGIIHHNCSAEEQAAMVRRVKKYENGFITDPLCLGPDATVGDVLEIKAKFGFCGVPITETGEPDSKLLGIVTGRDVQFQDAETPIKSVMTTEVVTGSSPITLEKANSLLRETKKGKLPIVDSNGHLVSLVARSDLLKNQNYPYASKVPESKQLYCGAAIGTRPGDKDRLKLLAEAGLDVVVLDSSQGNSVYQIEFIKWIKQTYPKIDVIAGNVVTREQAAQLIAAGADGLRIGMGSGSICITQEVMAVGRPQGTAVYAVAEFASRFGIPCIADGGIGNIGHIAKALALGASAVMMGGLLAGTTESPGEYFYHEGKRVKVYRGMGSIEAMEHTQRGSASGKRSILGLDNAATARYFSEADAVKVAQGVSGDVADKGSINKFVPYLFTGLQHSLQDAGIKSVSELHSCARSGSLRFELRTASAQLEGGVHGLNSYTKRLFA

[3] = test system: NC(=O)c1ccc[n+]([C@@H]2O[C@H](COP(=O)([O-])OP(=O)(O)OC[C@H]3O[C@@H](n4cnc5c(N)ncnc54)[C@H](O)[C@@H]3O)[C@@H](O)[C@H]2O)c1; assay: purified protein; settings: IMP NAD+ site; substrate inhibition attributed to an E-XMP*•NAD+ complex; varied: cofactor

T1 sequence (E3P6S3 entry or part of it): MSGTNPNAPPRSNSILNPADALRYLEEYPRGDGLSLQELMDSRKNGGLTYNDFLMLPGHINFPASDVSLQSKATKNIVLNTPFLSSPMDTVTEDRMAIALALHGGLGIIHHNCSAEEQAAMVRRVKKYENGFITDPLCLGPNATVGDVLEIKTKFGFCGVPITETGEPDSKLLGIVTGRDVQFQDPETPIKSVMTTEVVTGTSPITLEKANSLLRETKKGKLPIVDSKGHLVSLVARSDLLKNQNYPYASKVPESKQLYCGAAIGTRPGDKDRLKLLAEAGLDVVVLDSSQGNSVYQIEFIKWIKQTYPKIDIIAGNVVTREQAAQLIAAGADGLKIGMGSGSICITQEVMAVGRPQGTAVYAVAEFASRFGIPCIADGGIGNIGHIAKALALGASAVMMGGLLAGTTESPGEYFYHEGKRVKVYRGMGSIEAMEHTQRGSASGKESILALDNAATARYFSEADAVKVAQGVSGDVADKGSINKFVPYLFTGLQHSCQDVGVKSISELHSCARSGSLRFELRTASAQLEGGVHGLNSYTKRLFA

Row | Compound | Ki [1] [nM] | Ki [2] [nM] | Km [3] [µM]
1 | COc1c(C)c2c(c(O)c1C/C=C(\C)CCC(=O)O)C(=O)OC2 [MPA, mycophenolic acid] | 96 ± 5 | 240 ± 18 | 
2 | CgImd1 (IMP dehydrogenase, CgIMPDH, VGIV) (Cryptococcus bacillisporus) |  |  | 532 ± 65
3 | CnImd1 (IMP dehydrogenase, CnIMPDH, VNI) (Cryptococcus neoformans H99) |  |  | 634 ± 97
